What all share (assay): Post-emergence action against weeds, greenhouse pot test
Holding throughout (assay type): in vivo

One test deals with Zea mays (ZEAMX). The method, then:
(§1) Seeds or rhizome pieces of mono- and dicotyledonous harmful and useful plants were placed in peat pots (diameter 4 cm) filled with sandy loam and then covered with soil. The pots were kept in a greenhouse under optimum conditions. In addition, harmful plants encountered in paddy rice cultivation were cultivated in pots with a water level 2 cm above the soil surface.
(§2) About three weeks after the start of the cultivation, the test plants were treated at the 2- to 3-leaf stage. The herbicides, formulated as powder or liquid concentrates, were, either alone or in the combinations according to the invention, sprayed in various dosages on to the green parts of the plants using an application rate of 600 l of water/ha (converted). For further cultivation of the plants, the pots were then again kept under optimum conditions in a greenhouse.
(§3) The visual scoring of the herbicidal effects was carried out in intervals up to 21 days after the treatment. Scoring was carried out in percent in comparison to the untreated control plants. 0%=no herbicidal activity, 100%=complete herbicidal activity=complete kill.
(§4) The percentages from the treatments with the herbicides alone (=individual application) and with the combinations according to the invention (=mixtures) were employed to calculate interactions using the method of Colby. When the observed efficacies of the mixtures exceed the formal sum of the values of the tests with individual applications, they also exceed the expected value according to Colby, which is calculated using the formula below (cf. S. R. Colby; in Weeds 15 (1967) pp. 20 to 22):
(§5) • A, B=activity of components A and B in percent at a dosage of a and b g of ai/ha (=gram of active substance per hectare), respectively. • E=expected value in % at a dosage of a+b g of ai/ha.

Another test deals with Oryza sativa (ORYSA). The procedure: as §1, §2, §3, §4, §5
Test [1] relates to Triticum aestivum (TRZAS). The method, then: as §1, §2, §3, §4, §5
A further test deals with Viola tricolor (VIOTR). As to conditions: 21 DAT; B 50 g of ai/ha. The method, then: as §1, §2, §3, §4, §5
Test [2] relates to Alopecurus myosuroides (ALOMY). As to conditions: 21 DAT. The method, then: as §1, §2, §3, §4, §5
The subject of test [3] is Matricaria inodora (MATIN). As to conditions: 21 DAT; B 50 g of ai/ha. The procedure:
as §1, §2, §3, §4, §5

Another test deals with Setaria viridis (SETVI). As to conditions: 21 DAT; B 50 g of ai/ha. The method, then: as §1, §2, §3, §4, §5
Test [4] relates to Fallopia (ex Polygonum) convolvulus (POLCO). Conditions: 21 DAT; B 50 g of ai/ha. The procedure: as §1
About three weeks after the start of the cultivation, the test plants were treated at the 2- to 3-leaf stage. The herbicides, formulated as powder or liquid concentrates, were, either alone or in the combinations according to the invention, sprayed in various dosages on to the green parts of the plants using an application rate of 600 l of water/ha (converted). For further cultivation of the plants, the pots were then again kept under optimum conditions in a greenhouse. […]
The percentages from the treatments with the herbicides alone (=individual application) and with the combinations according to the invention (=mixtures) were employed to calculate interactions using the method of Colby. When the observed efficacies of the mixtures exceed the formal sum of the values of the tests with individual applications, they also exceed the expected value according to Colby, which is calculated using the formula below (cf. S. R. Colby; in Weeds 15 (1967) pp. 20 to 22): […]

This note sets out measurements from patent US20100069249A1, “HERBICIDE COMBINATION COMPRISING DIMETHOXYTRIAZINYL-SUBSTITUTED DIFLUOROMETHANESULFONYLANILIDES” (BAYER CROPSCIENCE AG, priority 2008, published 2010).

Consider `COc1nc(OC)nc(C(=O)c2cccc(F)c2N(C)S(=O)(=O)C(F)F)n1` [A-1], for which the “% activity found” value in the test with Zea mays (ZEAMX) (21 DAT, A 4 g of ai/ha) was 0%; with Oryza sativa (ORYSA) (10/21 DAT, A 4 g of ai/ha), 0%; in test [1] (21 DAT, A 12 g of ai/ha) it was 0%.

As to `CP(=O)(O)CC[C@H](N)C(=O)O` [B1-8, (2S)-2-amino-4-[hydroxy(methyl)phosphinyl]butanoic acid], the “% activity found” value came to 40% with Viola tricolor (VIOTR); 30% with Zea mays (ZEAMX) (10 DAT, B 50 g of ai/ha); 40% with Zea mays (ZEAMX) (10 DAT, B 150 g of ai/ha); 0% in the test on Zea mays (ZEAMX) (21 DAT, B 50 g of ai/ha); 0% in the test on Zea mays (ZEAMX) (21 DAT, B 150 g of ai/ha); 0% in test [2] (B 50 g of ai/ha). In addition, the “% activity found” value in test [2] (B 150 g of ai/ha) stood at 20%; in the test with Oryza sativa (ORYSA) (10/21 DAT, B 50 g of ai/ha), 10%; with Oryza sativa (ORYSA) (10/21 DAT, B 150 g of ai/ha), 30%; with Oryza sativa (ORYSA) (21 DAT, B 150 g of ai/ha) it was 30%; in test [3], 60%; in the test with Setaria viridis (SETVI) it was 80%. For the same compound, the “% activity found” value worked out at 20% in test [1] (10 DAT, B 50 g of ai/ha); 30% in test [1] (10 DAT, B 150 g of ai/ha); 20% in test [1] (21 DAT, B 50 g of ai/ha); 40% in test [4].
